Experimental data: patent publication US20220267272A1, “PYRIDINIUM SALT AND PEST CONTROL AGENT” (Nippon Soda Co., Ltd., priority 2019, published 2022)
Counter-ions that a name gives are not always drawn. Like-named read-outs stand apart in the source and are kept apart here.

What was measured:
Helicoverpa armigera = assay: Efficacy test against Helicoverpa armigera (cabbage leaf disc); format: in vivo; settings: foliar, 144 h
Spodoptera litura = assay: Efficacy test against Spodoptera litura (cabbage leaf disc); format: in vivo; settings: foliar, 144 h
Experimental: (§1) 5 parts by mass of a compound according to the present invention, 93.6 parts of dimethylformamide, and 1.4 parts of polyoxyethylene alkyl aryl ether were mixed and dissolved to obtain an emulsion (1) containing 5% by mass of the active ingredient.
(§2) The emulsion (1) was diluted with water such that the amount of the compound according to the present invention became 125 ppm by mass. A cabbage leaf disc was immersed in the diluted solution for 30 seconds. The cabbage leaf disc was air-dried and then put in a petri dish, followed by leaving five second-instar larvae of Spodoptera litura therein. The petri dish was placed in a thermostatic chamber at a temperature of 25° C. and a humidity of 60%. After six days had passed from leaving the larvae, life or death was assessed and the mortality was calculated. The test was repeated twice.

Mythimna separata = assay: Efficacy test (2) against Mythimna separata (corn leaf disc); format: in vivo; settings: foliar, 144 h, 125 ppm by mass, corn leaf disc immersed 30 seconds, second-instar larvae, 25° C., humidity 60%, after six days
Experimental: as §1
as §2, with “corn” for “cabbage”, “was” for “was air-dried and then”, “and” for “followed by leaving”, “Mythimna separata were left” for “Spodoptera litura”

Plutella xylostella = assay: Efficacy test against Plutella xylostella (cabbage leaf disc); format: in vivo; settings: foliar, 72 h, 125 ppm by mass, cabbage leaf disc immersed 30 seconds, second-instar larvae, 25° C., humidity 60%, after three days
[1] = 125 ppm by mass, cabbage leaf disc immersed 30 seconds, second-instar larvae, 25° C., humidity 60%, after six days, read-out: mortality

Molecule O=C([N-][n+]1ccccc1)c1ccc(Oc2ccc(OC(F)(F)F)cc2)cc1 [Compound C1-8, pyridin-1-ium-1-yl(4-(4-(trifluoromethoxy)phenoxy)benzoyl)amide] has a melting point of 111 to 113 °C.

Molecule O=C([N-][n+]1ccccc1)c1ccc(C2CC2c2ccc(C(F)(F)F)cc2)cc1 (stereo not shown) [Compound C2-2] has a mortality at 125 ppm (Helicoverpa armigera; [1]) of at least 80% and a mortality at 125 ppm (Spodoptera litura; [1]) of at least 80%.

Work on O=C([N-][n+]1ccccc1)c1ccc(NS(=O)(=O)c2ccc(C(F)(F)F)cc2)cc1 yielded a melting point of 199 to 203 °C.

Molecule O=C([N-][n+]1ccccc1)c1ccc(C2CC2c2ccc(Cl)cc2)cc1 (stereo not shown) [Compound C2-4] has a mortality at 125 ppm (Mythimna separata) of at least 80%.

Work on O=C([N-][n+]1ccccc1)c1ccc(/C=C/c2ccc(C(F)(F)F)cc2)cc1 [Compound C1-31, (E)-Pyridin-1-ium-1-yl(4-(4-(trifluoromethyl)styryl)benzoyl)amide] yielded a mortality at 125 ppm (Plutella xylostella) of at least 80%, a mortality at 125 ppm (Mythimna separata) of at least 80% and a mortality at 125 ppm (Spodoptera litura; [1]) of at least 80%.

Work on O=C([N-][n+]1ccccc1)c1ccc(Cc2ccc(C(F)(F)F)cc2)cc1 [Compound C1-7, pyridin-1-ium-1-yl(4-(4-(trifluoromethyl)benzyl)benzoyl)amide] yielded a melting point of 180 to 183 °C.

In the case of O=C([N-][n+]1ccccc1)c1ccc(C2CC2c2ccc(OC(F)(F)F)cc2)cc1 (stereo not shown) [Compound C2-1], the mortality at 125 ppm (Helicoverpa armigera; [1]) was at least 80% and the mortality at 125 ppm (Spodoptera litura; [1]) was at least 80%.

O=C([N-][n+]1ccccc1)c1ccc(OC/C=C\Cl)cc1 [Compound C2-7] showed a melting point of 101 to 104 °C.

For O=C([N-][n+]1ccccc1)c1ccc(C(=O)c2ccc(OC(F)(F)F)cc2)cc1 [Compound C1-30, 1-(4-(4-(trifluoromethoxy)benzoyl)benzamide)pyridinium intramolecular salt], the mortality at 125 ppm (Plutella xylostella) was at least 80%.

Molecule CC(C)(C)OC(=O)N(Cc1ccc(OC(F)(F)F)cc1)c1ccc(C(=O)[N-][n+]2ccccc2)cc1 [Compound C2-9] has a melting point of 183 to 184 °C.

With O=C([N-][n+]1ccccc1)c1ccc(/C=N/OCC(F)(F)F)cc1 [Compound C1-5, (E)-pyridin-1-ium-1-yl(4-(((2,2,2-trifluoroethoxy)imino)methyl)benzoyl)amide] the melting point was 142 to 143 °C.

O=C([N-][n+]1ccccc1)c1ccc(/C=C/c2ccc(OC(F)(F)F)cc2)cc1 [Compound C2-5] gave a mortality at 125 ppm (Plutella xylostella) of at least 80% and a mortality at 125 ppm (Spodoptera litura; [1]) of at least 80%.

Cc1cccc[n+]1[N-]C(=O)c1ccc(C2CC2c2ccc(Cl)cc2)cc1 (stereo not shown) [Compound C2-3] gave a melting point of 140 to 144 °C.

In the case of O=C([N-][n+]1ccccc1)c1ccc(OC/C=C/Cl)cc1 [Compound C2-8], the melting point was 161 to 162 °C.

For O=C([N-][n+]1ccccc1)c1ccc(C(=O)Nc2ccc(OC(F)(F)F)cc2)cc1 [Compound C1-1, pyridin-1-ium-1-yl(4-((4-(trifluoromethoxy)phenyl)carbamoyl)benzoyl)amide], the melting point was 281 to 283 °C.

With O=C([N-][n+]1ccccc1)c1ccc(SCC(F)(F)C(F)(F)C(F)(F)C(F)(F)C(F)(F)F)cc1 (as salt: salt) [Compound C1-18, 1-(4-((2,2,3,3,4,4,5,5,6,6,6-undecafluorohexyl)thio)benzamide) pyridinium intramolecular salt] the melting point was 132 to 134 °C.

O=C([N-][n+]1ccccc1)c1ccc(OCC(F)(F)C(F)(F)C(F)(F)C(F)(F)F)cc1 [Compound C1-19, 1-(4-(2,2,3,3,4,4,5,5,5-nonafluoropentoxy)benzamide)pyridinium intramolecular salt] gave a mortality at 125 ppm (Spodoptera litura) of at least 80%.

O=C([N-][n+]1ccccc1)c1ccc(OC(F)(F)C(F)OC(F)(F)C(F)(F)C(F)(F)F)cc1 (stereo not shown) [Compound C1-11, 1-(4-(1,1,2-trifluoro-2-(perfluoropropoxy)ethoxy)benzamide) pyridinium intramolecular salt] showed a mortality at 125 ppm (Helicoverpa armigera) of at least 80% and a mortality at 125 ppm (Spodoptera litura) of at least 80%.

For Cl.O=C(N[n+]1ccccc1)c1ccc(NCc2ccc(OC(F)(F)F)cc2)cc1.[Cl-], the melting point was 204 to 206 °C.

O=C([N-][n+]1ccccc1)c1ccc(/C=C/C(F)(F)F)cc1 [Compound C1-25, 1-(4-((1E)-3,3,3-trifluoro-1-propen-1-yl)benzamide)pyridinium intramolecular salt] gave a mortality at 125 ppm (Spodoptera litura; [1]) of at least 80%.

O=C([N-][n+]1ccccc1)c1ccc(C#Cc2ccc(C(F)(F)F)cc2)cc1 [Compound C1-29, pyridin-1-ium-1-yl(4-((4-(trifluoromethyl)phenyl)ethynyl)benzoyl) amide] showed a mortality at 125 ppm (Plutella xylostella) of at least 80%, a mortality at 125 ppm (Mythimna separata) of at least 80% and a mortality at 125 ppm (Spodoptera litura; [1]) of at least 80%.

In the case of CC(C)(C)OC(=O)Nc1ccc(C(=O)[N-][n+]2ccccc2)cc1 [Compound C1-57, (4-((tert-butoxycarbonyl)amino)benzoyl)(pyridin-1-ium-1-yl)amide], the melting point was 251 to 253 °C.

For O=C([N-][n+]1ccccc1)c1ccc(NC(=O)c2ccc(C(F)(F)F)cc2)cc1, the melting point was 287 to 289 °C.
